Measured values: patent US9296741B2, “Bromodomain inhibitors” (priority 2012, dated 2016)

Legend:
[1] = target: human BRD4 first bromodomain (BDI_K57-E168) (Homo sapiens (Human), UniProt O60885); test: TR-FRET bromodomain binding assay, BRD4 first bromodomain
[2] = target: human BRD4 second bromodomain (BDII_E352-M457) (Homo sapiens (Human), UniProt O60885); test: TR-FRET bromodomain binding assay, BRD4 second bromodomain
[3] = tested on: breast cancer cell line MX-1; test: MX-1 cell line proliferation assay; type: cell-based, human; conditions: Homo sapiens, MX1, 72 h; MX-1 cells, 3-day proliferation, Cell Titer Glo; read-out: Cellular proliferation: EC50
[4] = Human liver microsome stability assay; type: in vitro ADME; conditions: both sexes, human, microsomes, pH 7.4
[5] = Rat liver microsome stability assay; type: in vitro ADME; conditions: rat liver microsomes (male Sprague-Dawley), 0.5 μM test compound, 0.25 mg/mL microsomal protein, pH 7.4, 37° C.; read-out: Stability in rat liver microsomes (t1/2 in minutes)
[6] = Mouse liver microsome stability assay; type: in vitro ADME; conditions: male, CD1, mouse, microsomes, pH 7.4

| Compound | Ki [1] [µM] | Ki [2] [µM] | EC50 [3] [µM] | half-life at 0.5 μM [4] [min] | half-life at 0.5 μM [5] [min] | half-life at 0.5 μM [6] [min] |
| --- | --- | --- | --- | --- | --- | --- |
| CCS(=O)(=O)Nc1ccc(OC2CCC(F)(F)CC2)c(-c2cn(C)c(=O)c3[nH]ccc23)c1 [Example 101, N-{4-[(4,4-difluorocyclohexyl)oxy]-3-(6-methyl-7-oxo-6,7-dihydro-1H-pyrrolo[2,3-c]pyridin-4-yl)phenyl}ethanesulfonamide] | 0.0012 | 0.0043 | 0.0112 | 92 | 12 | 20 |
| CNS(=O)(=O)Nc1ccc(OC2CCC(F)(F)CC2)c(-c2cn(C)c(=O)c3[nH]ccc23)c1 [Example 104, N-{4-[(4,4-difluorocyclohexyl)oxy]-3-(6-methyl-7-oxo-6,7-dihydro-1H-pyrrolo[2,3-c]pyridin-4-yl)phenyl}-N′-methylsulfuric diamide] | 0.0044 | 0.0179 | 0.0653 | 27 | 8 | 7 |
| CNS(=O)(=O)Nc1ccc(OC2CCCOC2)c(-c2cn(C)c(=O)c3[nH]ccc23)c1 (stereo not drawn) [Example 108, N-methyl-N′-[3-(6-methyl-7-oxo-6,7-dihydro-1H-pyrrolo[2,3-c]pyridin-4-yl)-4-(tetrahydro-2H-pyran-3-yloxy)phenyl]sulfuric diamide] | 0.0014 | 0.0053 | 0.038 | 37 | 33 | 13 |
| CCS(=O)(=O)Nc1ccc(OC2CCOCC2)c(-c2cn(C)c(=O)c3[nH]ccc23)c1 [Example 109, N-[3-(6-methyl-7-oxo-6,7-dihydro-1H-pyrrolo[2,3-c]pyridin-4-yl)-4-(tetrahydro-2H-pyran-4-yloxy)phenyl]ethanesulfonamide] | 0.00072 | 0.0034 | 0.032 | 71 | 61 | > 120 |
| Cn1cc(-c2cc(S(N)(=O)=O)cnc2Nc2ccccc2)c2cc[nH]c2c1=O [Example 111, 5-(6-methyl-7-oxo-6,7-dihydro-1H-pyrrolo[2,3-c]pyridin-4-yl)-6-(phenylamino)pyridine-3-sulfonamide] | 0.0087 | 0.0103 | 0.199 | > 120 | 42 | 63 |
| Cn1cc(-c2cc(C(=O)NCc3ccncc3)ccc2Oc2ccc(F)cc2F)c2cc[nH]c2c1=O [Example 121, 4-(2,4-difluorophenoxy)-3-(6-methyl-7-oxo-6,7-dihydro-1H-pyrrolo[2,3-c]pyridin-4-yl)-N-(pyridin-4-ylmethyl)benzamide] | 0.0155 | 0.0334 | 0.251 | 21 | 25 | 24 |
| Cn1cc(-c2cc(C(=O)NCC(C)(C)O)ccc2Oc2ccc(F)cc2F)c2cc[nH]c2c1=O [Example 123, 4-(2,4-difluorophenoxy)-N-(2-hydroxy-2-methylpropyl)-3-(6-methyl-7-oxo-6,7-dihydro-1H-pyrrolo[2,3-c]pyridin-4-yl)benzamide] | 0.0271 | 0.0361 | 0.118 | > 120 | > 120 | 45 |
| CCS(=O)(=O)N1CCN(C(=O)c2ccc(Oc3ccc(F)cc3F)c(-c3cn(C)c(=O)c4[nH]ccc34)c2)CC1 [Example 137, 4-[2-(2,4-difluorophenoxy)-5-{[4-(ethylsulfonyl)piperazin-1-yl]carbonyl}phenyl]-6-methyl-1,6-dihydro-7H-pyrrolo[2,3-c]pyridin-7-one] | 0.0687 | 0.0089 | 0.303 | 38 | 31 | 10 |
| CCS(=O)(=O)Nc1ccc(Oc2cncnc2)c(-c2cn(C)c(=O)c3[nH]ccc23)c1 [Example 141, N-[3-(6-methyl-7-oxo-6,7-dihydro-1H-pyrrolo[2,3-c]pyridin-4-yl)-4-(pyrimidin-5-yloxy)phenyl]ethanesulfonamide] | 0.0054 | 0.0152 | 0.125 | > 120 | 110 | 49 |
| Cn1nc(-c2cc(N)ccc2Oc2ccc(F)cc2F)c2cc[nH]c2c1=O [Example 148, 4-[5-amino-2-(2,4-difluorophenoxy)phenyl]-6-methyl-1,6-dihydro-7H-pyrrolo[2,3-d]pyridazin-7-one] | 0.205 | 0.152 | 0.74 | 58 | 2 | 6 |
| Cn1cc(-c2cc(S(C)(=O)=O)ccc2Oc2ccccc2Cl)c2cc[nH]c2c1=O [Example 152, 4-[2-(2-chlorophenoxy)-5-(methylsulfonyl)phenyl]-6-methyl-1,6-dihydro-7H-pyrrolo[2,3-c]pyridin-7-one] | 0.0246 | 0.0048 | 0.105 | 51 | 10 | 22 |
| Cn1cc(-c2cc(S(C)(=O)=O)ccc2Oc2cccc(Cl)c2)c2cc[nH]c2c1=O [Example 153, 4-[2-(3-chlorophenoxy)-5-(methylsulfonyl)phenyl]-6-methyl-1,6-dihydro-7H-pyrrolo[2,3-c]pyridin-7-one] | 0.0228 | 0.0082 | 0.0933 | 33 | 8 | 11 |
| Cn1cc(-c2cc(S(C)(=O)=O)ccc2Oc2ccc(C#N)cc2)c2cc[nH]c2c1=O [Example 156, 4-[2-(6-methyl-7-oxo-6,7-dihydro-1H-pyrrolo[2,3-c]pyridin-4-yl)-4-(methylsulfonyl)phenoxy]benzonitrile] | 0.0113 | 0.0209 | 0.114 | > 120 | > 120 | 33 |

Continued by falling Ki [1], values first:

| Ki [1] [µM] | Ki [2] [µM] | EC50 [3] [µM] | half-life at 0.5 μM [4] [min] | half-life at 0.5 μM [5] [min] | half-life at 0.5 μM [6] [min] | Compound |
| --- | --- | --- | --- | --- | --- | --- |
| 0.136 | 0.121 | > 3 | 13 | 5 | 8 | Cn1cc(-c2cc(NS(=O)(=O)CCF)ccc2Oc2c(F)cc(F)cc2F)c2cc[nH]c2c1=O [Example 114, 2-fluoro-N-[3-(6-methyl-7-oxo-6,7-dihydro-1H-pyrrolo[2,3-c]pyridin-4-yl)-4-(2,4,6-trifluorophenoxy)phenyl]ethanesulfonamide] |
| 0.0671 | 0.0269 | 0.055 | 41 | 38 | 55 | CCCS(=O)(=O)Nc1ccc(Oc2ccc(F)cc2F)c(-c2cn(C)c(=O)c3[nH]ccc23)c1 [Example 115, N-[4-(2,4-difluorophenoxy)-3-(6-methyl-7-oxo-6,7-dihydro-1H-pyrrolo[2,3-c]pyridin-4-yl)phenyl]propane-1-sulfonamide] |
| 0.0435 | 0.0073 | 0.137 | 15 | 21 | 2 | Cn1cc(-c2cc(C(=O)N3CCN(C(=O)c4ccco4)CC3)ccc2Oc2ccc(F)cc2F)c2cc[nH]c2c1=O [Example 134, 4-[2-(2,4-difluorophenoxy)-5-{[4-(furan-2-ylcarbonyl)piperazin-1-yl]carbonyl}phenyl]-6-methyl-1,6-dihydro-7H-pyrrolo[2,3-c]pyridin-7-one] |
| 0.0379 | 0.0456 | 0.118 | 54 | 38 | 12 | Cn1cc(-c2cc(C(=O)NCc3ccccn3)ccc2Oc2ccc(F)cc2F)c2cc[nH]c2c1=O [Example 129, 4-(2,4-difluorophenoxy)-3-(6-methyl-7-oxo-6,7-dihydro-1H-pyrrolo[2,3-c]pyridin-4-yl)-N-(pyridin-2-ylmethyl)benzamide] |
| 0.0193 | 0.0148 | 0.117 | > 120 | > 120 | 25 | Cn1cc(-c2cc(S(C)(=O)=O)ccc2Oc2cccc(C#N)c2)c2cc[nH]c2c1=O [Example 155, 3-[2-(6-methyl-7-oxo-6,7-dihydro-1H-pyrrolo[2,3-c]pyridin-4-yl)-4-(methylsulfonyl)phenoxy]benzonitrile] |
| 0.0065 | 0.0794 | 0.138 | 112 | 35 | 32 | CCS(=O)(=O)Nc1ccc(OCc2ccnn2C)c(-c2cn(C)c(=O)c3[nH]ccc23)c1 [Example 142, N-{3-(6-methyl-7-oxo-6,7-dihydro-1H-pyrrolo[2,3-c]pyridin-4-yl)-4-[(1-methyl-1H-pyrazol-5-yl)methoxy]phenyl}ethanesulfonamide] |
| 0.0027 | 0.0056 | 0.0264 | > 120 | 12 | 16 | CCS(=O)(=O)Nc1ccc(OCC2CC2)c(-c2cn(C)c(=O)c3[nH]ccc23)c1 [Example 145, N-[4-(cyclopropylmethoxy)-3-(6-methyl-7-oxo-6,7-dihydro-1H-pyrrolo[2,3-c]pyridin-4-yl)phenyl]ethanesulfonamide] |
| 0.00052 | 0.0015 | 0.016 | > 120 | 13 | 7 | CCS(=O)(=O)Nc1ccc(OC2CCCOC2)c(-c2cn(C)c(=O)c3[nH]ccc23)c1 (stereo not drawn) [Example 105, N-[3-(6-methyl-7-oxo-6,7-dihydro-1H-pyrrolo[2,3-c]pyridin-4-yl)-4-(tetrahydro-2H-pyran-3-yloxy)phenyl]ethanesulfonamide] |
